Experimental data from patent US9708314B2, “Heterocyclic amide compound” (NISSAN CHEMICAL INDUSTRIES, LTD., priority 2013, dated 2017).

Columns and labels:
Type in all cases: in vivo
Apera spica-venti. = assay: Test Example 4: herbicidal effect by application to foliage (diluvial soil, plastic box)
Source text: (§1) 5 Herbicidal ratio of 90% or more (almost completely withered) 4 Herbicidal ratio of 70% or more and less than 90% 3 Herbicidal ratio of 40% or more and less than 70% 2 Herbicidal ratio of 20% or more and less than 40% 1 Herbicidal ratio of 5% or more and less than 20% 0 Herbicidal ratio of 5% or less (almost no effect) [Test Example 4] Herbicidal Effect Test by Application to Foliage Sterilized diluvial soil was placed in a plastic box having a length of 21 cm, a width of 13 cm, and a depth of 7 cm. Each of the seeds of Digitaria ciliaris, Setaria viridis, Echinochloa crus-galli var. crus-galli, Avena fatua, Alopecurus myosuroides, Lolium multiflorum Lam., Apera spica-venti., Abutilon theophrasti, Amaranthus retroflexus, Chenopodium album, Stellaria media, Galium spurium, Veronica persica, Zea mays, Glycine max, Oryza sativa, Triticum aestivum, Beta vulgaris ssp. vulgaris, and Brassica campestris L. was sowed in a spot-like manner and was covered with the soil of about 1.5 cm thick. Thereafter, the plants were grown in the greenhouse of 25° C. to 30° C. After the plants were grown for 14 days, the emulsion agent containing the compound of the present invention prepared in accordance with Formulation Example 2 was diluted with water so as to be a predetermined herbicide amount and the diluted compound was uniformly applied to a stem and leaf part with a small-size spray. Three weeks after the herbicide application, effects on each plant were investigated in accordance with the criteria of Test Example 1. A: Echinochloa oryzicola Vasing., B: Scirpus juncoides, C: Monochoria vaginalis, D: Leptochloa chinensis, E: Cyperus difformis, F: Digitaria ciliaris, G: Setaria viridis, H: Echinochloa crus-galli var. crus-galli, I: Avena fatua, J: Alopecurus myosuroides, K: Lolium multiflorum Lam., L: Apera spica-venti., M: Abutilon theophrasti, N: Amaranthus retroflexus, O: Chenopodium album, P: Stellaria media, Q: Galium spurium, R: Veronica persica, a: transplanted Oryza sativa, b: directly sowed Oryza sativa, c: Zea mays, d: Glycine max, e: Triticum aestivum, f: Beta vulgaris ssp. vulgaris, and g: Brassica campestris L. The application herbicide amount (g/ha) means an amount that a concentration is adjusted so that, when an application amount is converted into per hectare (1 ha), the herbicide is applied by the number of grams (g) of the described value.

Digitaria ciliaris = assay: as above
Source text: as §1

Abutilon theophrasti = assay: as above
Source text: as §1

Setaria viridis = assay: as above
Source text: as §1

Lolium multiflorum Lam. = assay: as above
Source text: as §1

Chenopodium album = assay: as above
Source text: as §1

Alopecurus myosuroides = assay: as above
Source text: as §1

[1] = tested on: Echinochloa crus-galli var. crus-galli; assay: as above
Source text: as §1

Galium spurium = assay: as above
Source text: as §1

Veronica persica = assay: as above
Source text: as §1

Avena fatua = assay: as above
Source text: as §1

Leptochloa chinensis = assay: Test Example 3: herbicidal effect by application to foliage (Wagner pot, water depth 0.1-0.5 cm); conditions: Nineteenth Table, application to foliage
Source text: (§2) 5 Herbicidal ratio of 90% or more (almost completely withered) 4 Herbicidal ratio of 70% or more and less than 90% 3 Herbicidal ratio of 40% or more and less than 70% 2 Herbicidal ratio of 20% or more and less than 40% 1 Herbicidal ratio of 5% or more and less than 20% 0 Herbicidal ratio of 5% or less (almost no effect) [Test Example 3] Herbicidal Effect Test by Application to Foliage After alluvial soil was placed into 1/10000 are of Wagner pot, water was poured and mixed to form a condition having a water depth of 0.1 cm to 0.5 cm. Seeds of Echinochloa crus-galli var. crus-galli, Leptochloa chinensis, Cyperus difformis, and Oryza sativa were sowed and the pot was placed in the greenhouse of 25° C. to 30° C. to grow the plants. After the plants were grown for 14 days, the emulsion agent containing the compound of the present invention prepared in accordance with Formulation Example 2 was diluted with water so as to be a predetermined herbicide amount and the diluted compound was uniformly applied to a stem and leaf part with a small-size spray. Three weeks after the herbicide application, effects on each plant were investigated in accordance with the criteria of Test Example 1. A: Echinochloa oryzicola Vasing., B: Scirpus juncoides, C: Monochoria vaginalis, D: Leptochloa chinensis, E: Cyperus difformis, F: Digitaria ciliaris, G: Setaria viridis, H: Echinochloa crus-galli var. crus-galli, I: Avena fatua, J: Alopecurus myosuroides, K: Lolium multiflorum Lam., L: Apera spica-venti., M: Abutilon theophrasti, N: Amaranthus retroflexus, O: Chenopodium album, P: Stellaria media, Q: Galium spurium, R: Veronica persica, a: transplanted Oryza sativa, b: directly sowed Oryza sativa, c: Zea mays, d: Glycine max, e: Triticum aestivum, f: Beta vulgaris ssp. vulgaris, and g: Brassica campestris L. The application herbicide amount (g/ha) means an amount that a concentration is adjusted so that, when an application amount is converted into per hectare (1 ha), the herbicide is applied by the number of grams (g) of the described value.

Cyperus difformis = assay: as above; conditions: Nineteenth Table, application to foliage
Source text: as §2

[2] = tested on: Echinochloa crus-galli var. crus-galli; assay: as above; conditions: Nineteenth Table, application to foliage
Source text: as §2

Brassica campestris L. = assay: Test Example 4: effect on crop by application to foliage (diluvial soil, plastic box); conditions: for g: effect on crop
Source text: as §1

[3] = tested on: Beta vulgaris ssp. vulgaris; assay: as above; conditions: for f: effect on crop
Source text: as §1

Zea mays = assay: as above; conditions: for b: effect on crop
Source text: as §1

Glycine max = assay: as above; conditions: for c: effect on crop
Source text: as §1

[4] = tested on: directly sowed Oryza sativa; assay: as above; conditions: for d: effect on crop
Source text: as §1

Triticum aestivum = assay: as above; conditions: for e: effect on crop
Source text: as §1

[5] = tested on: directly sowed Oryza sativa; assay: Test Example 3: effect on crop by application to foliage (Wagner pot, water depth 0.1-0.5 cm); conditions: Nineteenth Table, application to foliage
Source text: as §2

Amaranthus retroflexus = assay: Test Example 4: herbicidal effect by application to foliage (diluvial soil, plastic box); conditions: application to foliage, 320 g/ha
Source text: as §1

Stellaria media = assay: as above; conditions: application to foliage, 320 g/ha
Source text: as §1

[6] = Application herbicide amount 320 g/ha
[7] = application herbicide amount 320 g/ha
[8] = application to foliage, 320 g/ha
[9] = Application herbicide amount 224 g/ha
[10] = application herbicide amount 224 g/ha

## CON=Cc1nnc2c(C(=O)Nc3nnc(C)o3)ccc(C(F)(F)F)n12 [1-072]
Apera spica-venti.; [6]
  L: 0 (Herbicidal ratio of 5% or less (almost no effect))
Digitaria ciliaris; [6]
  F: 0 (Herbicidal ratio of 5% or less (almost no effect))
Abutilon theophrasti; [6]
  M: 1 (Herbicidal ratio of 5% or more and less than 20%)
Setaria viridis; [6]
  G: 0 (Herbicidal ratio of 5% or less (almost no effect))
Lolium multiflorum Lam.; [6]
  K: 0 (Herbicidal ratio of 5% or less (almost no effect))
Chenopodium album; [6]
  O: 4 (Herbicidal ratio of 70% or more and less than 90%)
Alopecurus myosuroides; [6]
  J: 0 (Herbicidal ratio of 5% or less (almost no effect))
[1]; [6]
  H: 3 (Herbicidal ratio of 40% or more and less than 70%)
Galium spurium; [6]
  Q: 0 (Herbicidal ratio of 5% or less (almost no effect))
Veronica persica; [6]
  R: 1 (Herbicidal ratio of 5% or more and less than 20%)
Avena fatua; [6]
  I: 0 (Herbicidal ratio of 5% or less (almost no effect))
Leptochloa chinensis; [7]
  D (herbicidal effect grade): 1 (Herbicidal ratio of 5% or more and less than 20%)
Cyperus difformis; [7]
  E (herbicidal effect grade): 0 (Herbicidal ratio of 5% or less (almost no effect))
[2]; [7]
  H (herbicidal effect grade): 2 (Herbicidal ratio of 20% or more and less than 40%)
Brassica campestris L.; [6]
  g: 0 (Herbicidal ratio of 5% or less (almost no effect))
[3]; [6]
  f: 0 (Herbicidal ratio of 5% or less (almost no effect))
Zea mays; [6]
  b: 0 (Herbicidal ratio of 5% or less (almost no effect))
Glycine max; [6]
  c: 0 (Herbicidal ratio of 5% or less (almost no effect))
[4]; [6]
  d: 0 (Herbicidal ratio of 5% or less (almost no effect))
Triticum aestivum; [6]
  e: 0 (Herbicidal ratio of 5% or less (almost no effect))
[5]; [7]
  b (effect on crop grade): 0 (Herbicidal ratio of 5% or less (almost no effect))

## CCn1nc2c(C(=O)Nc3nonc3C)ccc(C(F)(F)F)n2c1=O [6-008]
Apera spica-venti.; [8]
  herbicidal effect, L (Apera spica-venti.): 0 (Herbicidal ratio of 5% or less (almost no effect))
Digitaria ciliaris; [8]
  herbicidal effect, F (Digitaria ciliaris): 0 (Herbicidal ratio of 5% or less (almost no effect))
Abutilon theophrasti; [8]
  herbicidal effect, M (Abutilon theophrasti): 1 (Herbicidal ratio of 5% or more and less than 20%)
Amaranthus retroflexus
  herbicidal effect, N (Amaranthus retroflexus): 0 (Herbicidal ratio of 5% or less (almost no effect))
Stellaria media
  herbicidal effect, P (Stellaria media): 1 (Herbicidal ratio of 5% or more and less than 20%)
Setaria viridis; [8]
  herbicidal effect, G (Setaria viridis): 0 (Herbicidal ratio of 5% or less (almost no effect))
Lolium multiflorum Lam.; [8]
  herbicidal effect, K (Lolium multiflorum Lam.): 0 (Herbicidal ratio of 5% or less (almost no effect))
Chenopodium album; [8]
  herbicidal effect, O (Chenopodium album): 3 (Herbicidal ratio of 40% or more and less than 70%)
Alopecurus myosuroides; [8]
  herbicidal effect, J (Alopecurus myosuroides): 0 (Herbicidal ratio of 5% or less (almost no effect))
[1]; [8]
  herbicidal effect, H (Echinochloa crus-galli var. crus-galli): 0 (Herbicidal ratio of 5% or less (almost no effect))
Galium spurium; [8]
  herbicidal effect, Q (Galium spurium): 0 (Herbicidal ratio of 5% or less (almost no effect))
Veronica persica; [8]
  herbicidal effect, R (Veronica persica): 0 (Herbicidal ratio of 5% or less (almost no effect))
Avena fatua; [8]
  herbicidal effect, I (Avena fatua): 0 (Herbicidal ratio of 5% or less (almost no effect))
Brassica campestris L.; [8]
  effect on crop, g (Brassica campestris L.): 0 (Herbicidal ratio of 5% or less (almost no effect))
[3]; [8]
  effect on crop, f (Beta vulgaris ssp. vulgaris): 1 (Herbicidal ratio of 5% or more and less than 20%)
Zea mays; [8]
  effect on crop, b (Zea mays): 0 (Herbicidal ratio of 5% or less (almost no effect))
Glycine max; [8]
  effect on crop, c (Glycine max): 0 (Herbicidal ratio of 5% or less (almost no effect))
[4]; [8]
  effect on crop, d (directly sowed Oryza sativa): 1 (Herbicidal ratio of 5% or more and less than 20%)
Triticum aestivum; [8]
  effect on crop, e (Triticum aestivum): 0 (Herbicidal ratio of 5% or less (almost no effect))

## Cc1nnc(NC(=O)c2c(C)cc(C(F)(F)F)n3c(C(C)C)nnc23)o1 [1-089]
Apera spica-venti.; [9]
  L: 0 (Herbicidal ratio of 5% or less (almost no effect))
Digitaria ciliaris; [9]
  F: 1 (Herbicidal ratio of 5% or more and less than 20%)
Abutilon theophrasti; [9]
  M: 2 (Herbicidal ratio of 20% or more and less than 40%)
Setaria viridis; [9]
  G: 0 (Herbicidal ratio of 5% or less (almost no effect))
Lolium multiflorum Lam.; [9]
  K: 0 (Herbicidal ratio of 5% or less (almost no effect))
Chenopodium album; [9]
  O: 4 (Herbicidal ratio of 70% or more and less than 90%)
Alopecurus myosuroides; [9]
  J: 0 (Herbicidal ratio of 5% or less (almost no effect))
[1]; [9]
  H: 3 (Herbicidal ratio of 40% or more and less than 70%)
Galium spurium; [9]
  Q: 0 (Herbicidal ratio of 5% or less (almost no effect))
Veronica persica; [9]
  R: 3 (Herbicidal ratio of 40% or more and less than 70%)
Avena fatua; [9]
  I: 2 (Herbicidal ratio of 20% or more and less than 40%)
Leptochloa chinensis; [10]
  D (herbicidal effect grade): 3 (Herbicidal ratio of 40% or more and less than 70%)
Cyperus difformis; [10]
  E (herbicidal effect grade): 2 (Herbicidal ratio of 20% or more and less than 40%)
[2]; [10]
  H (herbicidal effect grade): 3 (Herbicidal ratio of 40% or more and less than 70%)
Brassica campestris L.; [9]
  g: 1 (Herbicidal ratio of 5% or more and less than 20%)
[3]; [9]
  f: 3 (Herbicidal ratio of 40% or more and less than 70%)
Zea mays; [9]
  b: 0 (Herbicidal ratio of 5% or less (almost no effect))
Glycine max; [9]
  c: 0 (Herbicidal ratio of 5% or less (almost no effect))
[4]; [9]
  d: 1 (Herbicidal ratio of 5% or more and less than 20%)
Triticum aestivum; [9]
  e: 0 (Herbicidal ratio of 5% or less (almost no effect))
[5]; [10]
  b (effect on crop grade): 0 (Herbicidal ratio of 5% or less (almost no effect))
